In BigSolDB 2.1:
Values joined by “and” are separate entries in the source; they are usually repeats but may differ in a detail not shown here. Equal values may be shown once.

CC(C)(C)C(O)/C(=C\c1ccc(Cl)cc1)n1cncn1 (stereo not drawn)
solubility (mole fraction)
Conditions | 278.15 K | 283.15 K | 288.15 K | 293.15 K | 298.15 K | 303.15 K | 308.15 K | 313.15 K | 318.15 K | 323.15 K
in ethyl acetate | 0.0106 | 0.0112 | 0.016 | 0.0167 | 0.0187 | 0.0201 | 0.0253 | 0.028 | 0.035 | 0.0536
in ethylene glycol | 0.000907 | 0.000983 | 0.00103 | 0.00118 | 0.00128 | 0.00166 | 0.0018 | 0.00202 | 0.00248 | 0.0025
in isobutanol | 0.0157 | 0.0177 | 0.0185 | 0.0197 | 0.0225 | 0.0257 | 0.0261 | 0.0365 | 0.0425 | 0.0566
in isobutyl acetate | 0.00727 | 0.0102 | 0.0116 | 0.0136 | 0.0159 | 0.0199 | 0.0219 | 0.0263 | 0.0335 | 0.0423
in isopropanol | 0.0112 | 0.0122 | 0.0141 | 0.0157 | 0.0189 | 0.0248 | 0.0268 | 0.0326 | 0.038 | 0.047
in methyl acetate | 0.0084 | 0.00938 | 0.0116 | 0.0137 | 0.0151 | 0.0184 | 0.0214 | 0.0236 | 0.0318 | 0.0383
in n-butanol | 0.015 | 0.0171 | 0.0196 | 0.0221 | 0.0249 | 0.0309 | 0.0355 | 0.0406 | 0.0475 | 0.0623
in n-butyl acetate | 0.0118 | 0.0131 | 0.0153 | 0.0182 | 0.0204 | 0.0247 | 0.0291 | 0.0332 | 0.0364 | 0.0527
in n-octanol | 0.0159 | 0.0177 | 0.02 | 0.0225 | 0.0238 | 0.0255 | 0.0287 | 0.0369 | 0.044 | 0.0511
in n-propanol | 0.0143 | 0.0163 | 0.0196 | 0.0218 | 0.0231 | 0.0263 | 0.0273 | 0.0332 | 0.0441 | 0.0497
in n-propyl acetate | 0.0114 | 0.0123 | 0.0147 | 0.0169 | 0.0269 | 0.0277 | 0.0362 | 0.037 | 0.052 | 0.0556
in propylene glycol | 0.00332 | 0.00359 | 0.00423 | 0.00483 | 0.00737 | 0.00749 | 0.00874 | 0.0101 | 0.0139 | 0.0174
in water | 2.2e-06 and 3.2e-06 | 2.3e-06 and 3.6e-06 | 2.4e-06 | 2.6e-06 | 2.7e-06 | 2.8e-06 | 3e-06 | – | – | 4.2e-06
